Measured values from patent EP4772500A1, “NOVEL ISOXAZOLE COMPOUND AS TM4SF5-SPECIFIC INHIBITOR AND USE THEREOF” (Seoul National University R&DB Foundation, priority 2023, dated 2025).

System: SNU449-TM4SF5 cells
Assay: Western blotting of NK cell stimulatory ligands
Format: cell-based, human
Details: SNU449-TM4SF5, given concentration, 24 hours (FIG. 13c)
Procedure: Cell extracts were obtained from cells grown to a density of 70-80% without any treatment, or from cells treated with vehicle DMSO or drugs at the given concentrations for 24 hours. For the extract of hepatocytes or liver cancer cells, a lysis buffer (150 mM NaCl, 1% NP-40, 50 mM Tris-HCl, 0.25% sodium deoxycholate, pH 7.4) including a protease inhibitor cocktail (GenDEPOT) was used. In addition, after washing animal liver tissue twice with PBS, SDS, Na3VO4, and protease inhibitor cocktails (GenDEPOT) were added to a lysis buffer [50 mM Tris-HCl, pH 7.4, 1% NP40, 0.25% sodium deoxycholate, 150 mM NaCl, 1 mM EDTA (based on 500 ml)], followed by treatment at 4°C for 15 minutes. […] After quantification using BCA reagent (Thermo Scientific), a 4 × sample buffer [100% glycerol 4 ml, Tris-HCl, pH 6.8, 2.4 ml, SDS 0.8 g, Bromophenol blue 4 mg, betamercaptoethanol 0.4 ml, H2O 3.1 ml (based on 10 ml)] was added, followed by boiling at 100°C for 5 minutes. […]
After 24 hours, vehicle DMSO, drug ST-1-025, or ST-5-002 was treated at the given concentrations. […] (f) After treating NK92-EV or NK92-TM4SF5 cells with DMSO or drugs ST-2-001 (1 nM), ST-3-005 (10 nM or 1 µM), ST-5-001, or ST-5-002 (100 nM or 1 µM) for 24 hours, the expression of SLAMF7 expressed on the cell surface was analyzed through immunostaining using flow cytometry. […]

expression of the stimulatory ligands (MICA/B, SLAMF6, and SLAMF7): increased again
Compound: COc1ccc(-c2cc(-c3ccc(N)cc3)no2)cc1 [ST-1-025, 4-(5-(4-methoxyphenyl)isoxazole-3-yl)aniline]
